From patent US9018388B2, “Pesticidal compositions and processes related thereto” (Dow AgroSciences LLC, priority 2012, dated 2015) come the findings set out here.

What all share (format): in vivo
Assay [1] relates to Green Peach Aphid (GPA) (Myzus persicae). Description: Bioassay on green peach aphid (GPA), foliar spray on cabbage seedlings. Particulars: 72 h, read-out: % Mortality GPA 200 ppm. How it is done: Bioassays on Green Peach Aphid (“GPA”) (Myzus persicae)
Certain molecules disclosed in this document were tested against GPA using procedures described in the following example. In the reporting of the results, the “GPA Rating Table” was used (See Table Section).
Cabbage seedlings grown in 3-inch pots, with 2-3 small (3-5 cm) true leaves, were used as test substrate. The seedlings were infested with 20-50 GPA (wingless adult and nymph stages) one day prior to chemical application. Four pots with individual seedlings were used for each treatment. Test compounds (2 mg) were dissolved in 2 mL of acetone/methanol (1:1) solvent, forming stock solutions of 1000 ppm test compound. The stock solutions were diluted 5× with 0.025% Tween 20 in H2O to obtain the solution at 200 ppm test compound. A hand-held aspirator-type sprayer was used for spraying a solution to both sides of […] leaves until runoff. Reference plants (solvent check) were sprayed with the diluent only containing 20% by volume of acetone/methanol (1:1) solvent. Treated plants were held in a holding room for three days at approximately 25° C. and ambient relative humidity (RH) prior to grading. Evaluation was conducted by counting the number of live aphids per plant under a microscope. Percent Control was measured by using Abbott's correction formula (W. S. Abbott, “A Method of Computing the Effectiveness of an Insecticide” J. Econ. Entomol. 18 (1925), pp. 265-267) as follows. Corrected%Control=100*(X−Y)/X • where • X=No. of live aphids on solvent check plants and • Y=No. of live aphids on treated plants
The results are indicated in the table entitled “Table 5: Biological Results” (See Table Section).

Assay [2] concerns Beet Armyworm (BAW) (Spodoptera exigua). Put plainly: Bioassay on beet armyworm (BAW), 128-well diet tray assay. Particulars: Spodoptera exigua; Beet armyworm, 50 μg/cm^2; read-out: % Mortality BAW 50 μg/cm^2. The method in brief: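 Second-instar Spodoptera exigua larvae, one to five per well, on artificial diet treated with 50 μg/cm^2 compound in 90:10 acetone-water and dried, eight wells per compound. Held at 25 °C, 14:10 light-dark for five to seven days; percent mortality averaged over wells.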

Assay [3] deals with Corn Earworm (CEW) (Helicoverpa zea). Description: Bioassay on corn earworm (CEW), 128-well diet tray assay. The following applies: Helicoverpa zea; Corn earworm, 50 μg/cm^2; read-out: % Mortality CEW 50 μg/cm^2. In short, it runs like this:
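Second-instar Helicoverpa zea larvae (one to five per well) placed on artificial diet treated with 50 μg/cm^2 compound in 90:10 acetone-water, dried, eight wells per compound. Held at 25 °C, 14:10 light-dark, five to seven days; percent mortality averaged over wells.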

On to `Cc1cccc(C)c1-n1c(-c2ccc(C(F)(F)F)cc2)cs/c1=N\N=C\c1ccc(-c2ncn(-c3ccc(OC(F)(F)F)cc3)n2)cc1` [Compound 79C], for which, in assay [1], the pest or weed control at 200 ppm lay within 0 to 80%. Moreover, the pest or weed control at 50 µg/cm2, 50 µg/cm2 in assay [2] and in assay [3] was 50 to 100% throughout.

As for `Cc1cccc(C)c1/N=C(/N/N=C/c1ccc(-c2ncn(-c3ccc(OC(F)(F)F)cc3)n2)cc1)SCC(=O)NC[C@@H]1CCCNC1` [Compound 62C, (1Z,2E)-2-oxo-2-(((R)-piperidin-3-ylmethyl)amino)ethyl N-(2,6-dimethylphenyl)-2-(4-(1-(4-(trifluoromethoxy)phenyl)-1H-1,2,4-triazol-3-yl)benzylidene)hydrazinecarbimidothioate trifluoroacetic acid], in assay [1], the pest or weed control at 200 ppm is 0 to 80%. The pest or weed control at 50 µg/cm2, 50 µg/cm2 in assay [2] and in assay [3] was 50 to 100% throughout.

As for `Cc1cccc(C)c1/N=C(/N/N=C/c1ccc(-c2ncn(-c3ccc(OC(F)(F)F)cc3)n2)cc1)SCc1ccc(S(C)(=O)=O)cc1` [Compound 17C], the pest or weed control at 200 ppm in assay [1] is 0 to 80%. For the same compound, the pest or weed control at 50 µg/cm2, 50 µg/cm2 in assay [2] and in assay [3] was 50 to 100% in each case.

As for `COc1ccccc1N1C(=O)CS/C1=N\N=C\c1ccc(-c2ncn(-c3ccc(OC(F)(F)F)cc3)n2)cc1` [Compound 92C], the pest or weed control at 200 ppm in assay [1] was 0 to 80%. In addition, the pest or weed control at 50 µg/cm2, 50 µg/cm2 in assay [2] and in assay [3] was 50 to 100% each time.

In the case of `CC(C)=Cc1ccccc1N1C(=O)CS/C1=N\N=C\c1ccc(-c2ncn(-c3ccc(OC(F)(F)F)cc3)n2)cc1` [Compound 121C], the pest or weed control at 200 ppm in assay [1] lay within 0 to 80%. Further, the pest or weed control at 50 µg/cm2, 50 µg/cm2 in assay [2] and in assay [3] was 50 to 100% each time.

`COc1cccc(N2CCS/C2=N\N=C\c2ccc(-c3ncn(-c4ccc(OC(F)(F)F)cc4)n3)cc2)c1` [Compound 147C]: in assay [1], the pest or weed control at 200 ppm was 0 to 80%. The pest or weed control at 50 µg/cm2, 50 µg/cm2 in assay [2] and in assay [3] was 50 to 100% throughout.

On to `Fc1cccc(F)c1N1CCCS/C1=N\N=C\c1ccc(-c2ncn(-c3ccc(OC(F)(F)F)cc3)n2)cc1` [Compound 189C], for which the pest or weed control at 200 ppm in assay [1] lay within 0 to 80%. The pest or weed control at 50 µg/cm2, 50 µg/cm2 in assay [2] and in assay [3] was 50 to 100% throughout.

For the compound `Cc1cccc(Cl)c1-n1c(C)cs/c1=N\N=C\c1ccc(-c2ncn(-c3ccc(OC(F)(F)F)cc3)n2)cc1` [Compound 174C], the pest or weed control at 200 ppm in assay [1] was in the range of 0 to 80%. In addition, the pest or weed control at 50 µg/cm2, 50 µg/cm2 in assay [2] and in assay [3] was 50 to 100% in each case.

Turning to `CC1CS/C(=N\N=C\c2ccc(-c3ncn(-c4ccc(OC(F)(F)F)cc4)n3)cc2)N1c1c(Cl)cccc1Cl` (stereo not drawn) [Compound 157C], the pest or weed control at 200 ppm in assay [1] was in the range of 0 to 80%. For the same compound, the pest or weed control at 50 µg/cm2, 50 µg/cm2 in assay [2] and in assay [3] was 50 to 100% throughout.

For the compound `COc1cc(C)c(/N=C(/N/N=C/c2ccc(-c3ncn(-c4ccc(OC(F)(F)F)cc4)n3)cc2)SCC(=O)N2CCNCC2)c(C)c1` [Compound 65C], in assay [1], the pest or weed control at 200 ppm lay in the range of 0 to 80%. For the same compound, the pest or weed control at 50 µg/cm2, 50 µg/cm2 in assay [2] and in assay [3] was 50 to 100% each time.

For the compound `Cc1cccc(C)c1-n1c(-c2ccc(C(=O)O)cc2)cs/c1=N\N=C\c1ccc(-c2ncn(-c3ccc(OC(F)(F)F)cc3)n2)cc1` [Compound 77C], the pest or weed control at 200 ppm in assay [1] was 0 to 80%. The pest or weed control at 50 µg/cm2, 50 µg/cm2 in assay [2] and in assay [3] was 50 to 100% throughout.

For `Cc1cccc(C)c1/N=C(/N/N=C/c1ccc(-c2ncn(-c3ccc(OC(F)(F)F)cc3)n2)cc1)SCOC(=O)OC(C)C` [Compound 24C], the pest or weed control at 200 ppm in assay [1] is 0 to 80%. Besides, the pest or weed control at 50 µg/cm2, 50 µg/cm2 in assay [2] and in assay [3] was 50 to 100% throughout.
